US6593365B1, “Diflunisal esters and related compounds” (The University of Queensland, priority 1997, dated 2003)
Marks after values point to notes of the source that are not given here.

Columns and labels:
[1] = test system: human platelet rich plasma; test: Platelet aggregation induced by arachidonic acid; type: cell-based; details: compound 600 µM, 37° C., arachidonic acid 200 µM
Outline: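 Citrated human PRP ([…]) preincubated with compound 3–45 min at 37 °C under stirring, then challenged with 200 µM arachidonic acid (final). Aggregation quantified as area under the turbidimetric curve; non-responding samples given 20 µM ADP to verify platelet viability.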

[2] = test system: OH. generated from Fenton's reaction; test: Luminol-dependent chemiluminescence induced by Fenton's reagent; type: biochemical; parameters: unit of the concentration uncertain; details: F: CL induced by Fenton's reagent, n=3
Procedure: CL was measured with a luminometer (Model 1250; LKB Wallac, Finland) and recorded in millivolts (Cheung et al., 1984, supra).
Fenton's reagent (FeSO4 and H2O2) was used as a standard reaction mixture for the generation of OH. (Lai and Piette, 1979, Tetrahedron Lett. 775-778):
Fe^+++H2O2→Fe^++++OH.+OH (1)
The initial reaction mixture consisted of 20 μL of 3.8 mM FeSO4.7H2O, 20 μL of 5 mg/mL luminol (Sigma), and 2 mL of 1 mM phosphate buffer in a 3 mL polystyrene cuvette. Twenty microlitres of 320 mM H2O2 was added to initiate the Fenton's reaction.
A known concentration of the ethanolic (≲1%) aspirin analogue or diflunisal ester's stock solution was added to the 1 mM phosphate buffer to prepare solutions with a final concentration of 50 μM, 250 μM or 500 μM. Twenty microlitres of these test samples was added onto the cuvette which contained the initial reaction mixture. H2O2 was added to induce CL reaction. The luminol-dependent CL response was recorded in mV by a potentiometric recorder.
(§1) CL measurements were always done in triplicate and Student's t-test used to assess the statistical significance of the difference between measurements.

[3] = test system: superoxide generated from xanthine oxidase plus xanthine reaction; test: Xanthine oxidase plus xanthine-induced chemiluminescence; type: biochemical; parameters: dose or concentration left out as unconfirmed; details: X: CL induced by xanthine oxidase plus xanthine
Procedure: To clarify the role of aspirin analogues and diflunisal esters in free radicals scavenging, the Fenton's reagent was replaced by an artificial superoxide generating system in the CL inhibition studies. This cell-free system consisted of 100 μg/mL of xanthine oxidase (Sigma) plus 0.5 μM xanthine (Sigma) (Rosen and Klebanoff, 1976, J Clin Invest 58 50-60; Cheson et al., 1976, J Clin Invest 58 789-796).
as §1

[4] = test system: in-situ perfused rat liver; test: In-situ rat liver perfusions, hepatic extraction (Example 4); type: in vitro ADME; details: hepatic extraction=1- hepatic availability (F)
Procedure: The hepatic availability (F) for the O-acyl esters of SA and DF was determined using a once through in-situ perfused rat liver preparation (Mellick and Roberts, 1996, J Pharm Pharmacol 48:738-743). Liver was perfused with protein-free Krebs-Henseleit buffer at 30 mL/min for aspirin analogues and with Krebs-Henseleit buffer containing 2% BSA for diflunisal esters studies. Since the solubilities of the diflunisal esters in protein-free media were very low, 2% BSA were used to help to solubilize these compounds. Briefly, 50 μL of a saturated solution of the particular O-acyl SA or DF in Krebs-Henseleit buffer was injected as a bolus into the portal vein cannula. Perfusate outflow samples have collected via a fraction collector over 3 min. 100 μL of these samples was assayed by HPLC to determine the residual concentration of presented ester and the quantity of phenolic metabolite (SA or DF) collected from the perfused liver. The HPLC assay was a modification of the method used by Owen et al. (1987, J Chrom B Biomed Appl 416 293-302) and Rumble et al. (1981, J Chrom 225 252-260).
The hepatic availability (F) was calculated from the ratio of the area under the first moment curve, i.e., outflow concentration time-time profile to the area under the curve for the salicylate phenolic esters, with the assistance of the Moments Calculator 2.2 program for Macintosh computer developed by Robert Purves (1994, J Pharm Sci 83:202-205).

[5] = 0.5 (unit uncertain) compound, U = undetectable
[6] = 2% BSA in Krebs-Henseleit buffer as perfusate
[7] = protein-free Krebs-Henseleit buffer as perfusate

| Molecule | Platelet Aggregation (% of control) ([1]; preincubation 3 minutes) | Platelet Aggregation (% of control) ([1]; preincubation 5 minutes) | Platelet Aggregation (% of control) ([1]; preincubation 8 minutes) | Platelet Aggregation (% of control) ([1]; preincubation 10 minutes) | Platelet Aggregation (% of control) ([1]; preincubation 12 minutes) | Platelet Aggregation (% of control) ([1]; preincubation 15 minutes) | Platelet Aggregation (% of control) ([1]; preincubation 20 minutes) | Platelet Aggregation (% of control) ([1]; preincubation 25 minutes) | Platelet Aggregation (% of control) ([1]; preincubation 45 minutes) | CL inhibition (%) [2, 5] | CL inhibition (%) ([2]; 2.5 (unit uncertain) compound) | CL inhibition (%) ([2]; 5 (unit uncertain) compound) | CL inhibition (%) [3] | Hepatic extraction [4, 6] | Hepatic extraction [4, 7] |
| --- | --- | --- | --- | --- | --- | --- | --- | --- | --- | --- | --- | --- | --- | --- | --- |
| CC(=O)Oc1ccc(-c2ccc(F)cc2F)cc1C(=O)O [Compound C2D, acetyldiflunisal] | 92.3 ± 0.5 % of control | 67.3 ± 0.9 % of control | 27.9 ± 1.1 % of control | 0 % of control | 0 % of control | 0 % of control | 0 % of control | 0 % of control | 0 % of control | 21.3 ± 5.0% | 49.8 ± 3.9% | 91.2 ± 0.6% | 0.5 ± 0.0% | 0.49 |  |
| CCCC(=O)Oc1ccc(-c2ccc(F)cc2F)cc1C(=O)O [Compound C4D, n-butanoyldiflunisal] | 96.1 ± 0.3 % of control | 90.3 ± 2.1 % of control | 73.9 ± 0.7 % of control | 57.3 ± 0.1 % of control | 31.8 ± 0.4 % of control | 0 % of control | 0 % of control | 0 % of control | 0 % of control | 16.9 ± 4.9% | 65.1 ± 2.1% | 93.7 ± 0.5% | 0.6 ± 0.1% | 0.66 |  |
| CCCC(=O)Oc1ccccc1C(=O)O [Compound C4SA, n-butanoylsalicylic acid] | 29.5 ± 1.5^d % of control | 0 % of control | 0 % of control | 0 % of control | 0 % of control | 0 % of control | 0 % of control | 0 % of control | 0 % of control |  | 41.3 ± 7.5% | 84.2 ± 1.4% | 0.3 ± 0.1% |  | 0.60 |
| CCCCC(=O)Oc1ccc(-c2ccc(F)cc2F)cc1C(=O)O [Compound C5D, n-pentanoyldiflunisal] | 97.1 ± 0.1 % of control | 95.3 ± 0.7 % of control | 90.6 ± 0.9 % of control | 87.3 ± 3.1 % of control | 75.9 ± 0.1 % of control | 57.5 ± 1.7 % of control | 0 % of control | 0 % of control | 0 % of control | 22.2 ± 7.1% | 58.2 ± 2.5% | 88.8 ± 0.9% | 0.8 ± 0.0% | 0.62 |  |
| CCCCC(=O)Oc1ccccc1C(=O)O [Compound C5SA, n-pentanoylsalicylic acid] | 63.5 ± 1.5 % of control | 41.3 ± 1.1 % of control | 0 % of control | 0 % of control | 0 % of control | 0 % of control | 0 % of control | 0 % of control | 0 % of control | 0.4 ± 0.1^e % | 45.9 ± 5.0% | 95.6 ± 0.4% | 0.3 ± 0.0% |  | 0.74 |
| CCCCCC(=O)Oc1ccc(-c2ccc(F)cc2F)cc1C(=O)O [Compound C6D, n-hexanoyldiflunisal] | 97.2 ± 0.2 % of control | 94.7 ± 0.3 % of control | 93.3 ± 0.2 % of control | 90.1 ± 2.1 % of control | 89.3 ± 0.1 % of control | 71.7 ± 1.9 % of control | 45.6 ± 0.5 % of control | 0 % of control | 0 % of control | 20.5 ± 4.6% | 54.8 ± 2.4% | 92.7 ± 3.1% | 0.7 ± 0.1% | 0.62 |  |
| CCCCCC(=O)Oc1ccccc1C(=O)O [Compound C6SA, n-hexanoylsalicylic acid] | 90.1 ± 2.2 % of control | 70.5 ± 3.1 % of control | 39.9 ± 1.1 % of control | 0 % of control | 0 % of control | 0 % of control | 0 % of control | 0 % of control | 0 % of control | 0.2 ± 0.1% | 56.0 ± 3.7% | 96.0 ± 2.1% | 0.2 ± 0.0% |  | 0.98 |
| O=C(O)c1cc(-c2ccc(F)cc2F)ccc1O [DF, 2′,4′-difluoro-4-hydroxy-3-biphenylcarboxylic acid, reference compound] |  |  |  |  |  |  |  |  |  | 19.2 ± 6.9% | 50.6 ± 2.8% | 92.1 ± 0.6% | 0.4 ± 0.1% | 0.38 |  |
| O-acetylsalicylic acid [Compound C2SA, reference compound] | 0 % of control | 0 % of control | 0 % of control | 0 % of control | 0 % of control | 0 % of control | 0 % of control | 0 % of control | 0 % of control |  | 43.3 ± 5.0% | 97.6 ± 0.5% | 0.4 ± 0.1% |  | 0.15 |
